Assay: recombinant barcode read abundance after kanamycin selection (control-corrected) (log10(CPM+1)); higher = more efficient recombination; sequences stand for … in AGTGCAGAGAAAATCGGCCAGTTTTCTCTGCCTGCAGTCCGCATGCCGT…AGATTTATGCAGCGGACTGCCTTTCTCCCAAAGTGATAAACCGGACAGTATCATGGACCGGTTTTCCCGGTAATCCGTATTTGCAAGGTTGGTTTCACT; site = the 11-nt target
Summary of the method: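 Two replicates per condition were plated: chloramphenicol/ampicillin LB agar for the control, and chloramphenicol/ampicillin/kanamycin with 0.1 mM IPTG for selection. The pooled E. coli screen behind them paired targets with IS621 bridge RNA target-binding loops. Recombination efficiency is expressed from averaged, control-corrected barcode counts per million at recombinant junctions, as log10(CPM+1).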
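Note: IS621 recombinase and bridge RNA in Escherichia coli cells.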

Going from “TAGCTGACTTGGGTTCTAACCTGTTGCCC (site TAGCTGACTGG)” to “CGGCATACTTGGGTTCTAACCTGTTGCCT (site CAGCATACTAG)”, the “recombinant barcode read abundance (log10)” value falls from 0.932 to 0.0864.

Compared with “AGGGGATCTTGGGTTCTAACCTGTTGCCT (site AGGGGATCTAG)”, “CGAACTACTTGGGTTCTAACCTGTTGCCT (site CGAACTACTAG)” is lower in “recombinant barcode read abundance (log10)” value: 1.86 for the first, 0.0694 for the second.

Compared with “TCTACATCTTGGGTTCTAACCTGTTGCCT (site TCTACCTCTAG)”, “GGGGTTCCTTGGGTTCTAACCTGTTGCAT (site GGGGTTCCTAT)” is higher in “recombinant barcode read abundance (log10)” value: 0.0374 for the first, 2.47 for the second.

First: ATGCGAGCTTGGGTTCTAACCTGTTGCGG (site ATGCGAGCTCT)
Second: CTTCAAGCTTGGGTTCTAACCTGTTGCCT (site CTACAAGCTAG)
The “recombinant barcode read abundance (log10)” value of the first is higher: 1.37 for the first, 1.17 for the second.

Going from “CAATGGTCTTGGGTTCTAACCTGTTGCTT (site CAATGGTCTAT)” to “GAGTGTCCTTGGGTTCTAACCTGTTGCGA (site GAGTGTCCTTC)”, the “recombinant barcode read abundance (log10)” value rises from 1.14 to 1.87.

“GTCGTTCCTTGGGTTCTAACCTGTTGCCT (site GTAGTTCCTAG)” and “ACATTTCCTTGGGTTCTAACCTGTTGCCT (site ATATTTCCTAG)” are within 0.2 log units of each other in “recombinant barcode read abundance (log10)” value: 0.535 for the first, 0.58 for the second.

“GAGCGCTCTTGGGTTCTAACCTGTTGCTT (site GAGCGCTCTCA)” and “TCGGACCCTTGGGTTCTAACCTGTTGCGA (site TCGCACCCTTC)” are within 0.2 log units of each other in “recombinant barcode read abundance (log10)” value: 0.0723 for the first, 0.12 for the second.

First: TTAGCTTCTTGGGTTCTAACCTGTTGCCT (site TTAGCTTCTAG)
Second: GGAGGGGCTTGGGTTCTAACCTGTTGCCT (site GGAGGGGCTAG)
The “recombinant barcode read abundance (log10)” value of the first is lower: 0.163 for the first, 1.75 for the second.

Compared with “CTAGGATCTTGGGTTCTAACCTGTTGCAT (site CTAGGATCTTG)”, “GACTTCCCTTGGGTTCTAACCTGTTGCAT (site GACTTCCCTAT)” is higher in “recombinant barcode read abundance (log10)” value: 0.301 for the first, 1.45 for the second.

First: TCTAAGTCTTGGGTTCTAACCTGTTGCCA (site TCTAAGTCTGG)
Second: ATGTTAGCTTGGGTTCTAACCTGTTGCCT (site ATGTTAGCTAG)
The “recombinant barcode read abundance (log10)” value of the first is lower: 0.695 for the first, 1.65 for the second.

“TCGAACCCTTGGGTTCTAACCTGTTGCGG (site TCTAACCCTCC)” and “CGTACCTCTTGGGTTCTAACCTGTTGCTA (site CGTACCTCTCA)” are within 0.2 log units of each other in “recombinant barcode read abundance (log10)” value: 0.0521 for the first, 0.123 for the second.

Going from “ACCGATTCTTGGGTTCTAACCTGTTGCAT (site ACCGATTCTAT)” to “CTAGACTCTTGGGTTCTAACCTGTTGCAT (site CTAGACTCTTT)”, the “recombinant barcode read abundance (log10)” value falls from 0.696 to 0.365.

Going from “CAAGACGCTTGGGTTCTAACCTGTTGCCT (site CTAGACGCTAG)” to “TCCAGTACTTGGGTTCTAACCTGTTGCAT (site TCCTGTACTAT)”, the “recombinant barcode read abundance (log10)” value falls from 1.34 to 0.105.

First: GTATCCTCTTGGGTTCTAACCTGTTGCAT (site GTATGCTCTAC)
Second: ACGTTGTCTTGGGTTCTAACCTGTTGCCT (site ACATTGTCTAG)
The “recombinant barcode read abundance (log10)” value of the first is lower: 0.0984 for the first, 1.24 for the second.

First: ACAGAGACTTGGGTTCTAACCTGTTGCTA (site ACAGAGACTGT)
Second: GCACAAGCTTGGGTTCTAACCTGTTGCCT (site GCACAAGCTAG)
The “recombinant barcode read abundance (log10)” value of the first is lower: 0.121 for the first, 0.978 for the second.

“CTACGCACTTGGGTTCTAACCTGTTGCTG (site CTACGGACTCA)” and “CGTACCTCTTGGGTTCTAACCTGTTGCTA (site CGTACCTCTTA)” are within 0.2 log units of each other in “recombinant barcode read abundance (log10)” value: 0.112 for the first, 0.166 for the second.

First: ATGTAGTCTTGGGTTCTAACCTGTTGCCT (site ATGTAGTCTAG)
Second: GTCGTTCCTTGGGTTCTAACCTGTTGCCT (site GTCGTTCCTAG)
The “recombinant barcode read abundance (log10)” value of the first is higher: 1.89 for the first, 0.153 for the second.

“CCTCAGGCTTGGGTTCTAACCTGTTGCCG (site CCTCAGGCTGG)” and “TTGGTTCCTTGGGTTCTAACCTGTTGCCT (site TTGGTCCCTAG)” are within 0.2 log units of each other in “recombinant barcode read abundance (log10)” value: 0.107 for the first, 0.0439 for the second.

“CCAGTGACTTGGGTTCTAACCTGTTGCCT (site CCAGTTACTAG)” and “CGTCTGCCTTGGGTTCTAACCTGTTGCCT (site GGTCTGCCTAG)” are within 0.2 log units of each other in “recombinant barcode read abundance (log10)” value: 0.254 for the first, 0.0804 for the second.

First: GACGATCCTTGGGTTCTAACCTGTTGCCT (site GTCGATCCTAG)
Second: ACTCTGTCTTGGGTTCTAACCTGTTGCTT (site ACTCTGTCTAA)
The “recombinant barcode read abundance (log10)” value of the first is lower: 0.0852 for the first, 1.86 for the second.

Compared with “TCCGCTTCTTGGGTTCTAACCTGTTGCCT (site TCCGCTCCTAG)”, “CTAAGAACTTGGGTTCTAACCTGTTGCAT (site CTAAGAACTAT)” is higher in “recombinant barcode read abundance (log10)” value: 0.259 for the first, 1.1 for the second.

“AATGGGTCTTGGGTTCTAACCTGTTGCTT (site CCACTAGCTCT)” and “ACAAGGCCTTGGGTTCTAACCTGTTGCCT (site ACAAGGCCTAG)” are within 0.2 log units of each other in “recombinant barcode read abundance (log10)” value: 0.0323 for the first, 0.16 for the second.

Compared with “ACGACTACTTGGGTTCTAACCTGTTGCCT (site ACGACTCCTAG)”, “TCGGAGTCTTGGGTTCTAACCTGTTGCGT (site TCGGAGTCTAC)” is higher in “recombinant barcode read abundance (log10)” value: 0.00963 for the first, 2.55 for the second.

“ACCCCTCCTTGGGTTCTAACCTGTTGCCA (site ACCCCTCCTTG)” and “AACCACTCTTGGGTTCTAACCTGTTGCCT (site TACCACTCTAG)” are within 0.2 log units of each other in “recombinant barcode read abundance (log10)” value: 1.4 for the first, 1.46 for the second.

First: ACTTCACCTTGGGTTCTAACCTGTTGCCT (site ACTTCTGCTAG)
Second: TGCTACCCTTGGGTTCTAACCTGTTGCCT (site TGCTACCCTAG)
The “recombinant barcode read abundance (log10)” value of the first is lower: 0.0689 for the first, 0.427 for the second.

“GTCACCGCTTGGGTTCTAACCTGTTGCCT (site GTTACCGCTAG)” and “CTAATTGCTTGGGTTCTAACCTGTTGCCT (site CTAATTGCTAG)” are within 0.2 log units of each other in “recombinant barcode read abundance (log10)” value: 0.464 for the first, 0.336 for the second.

“TATTACCCTTGGGTTCTAACCTGTTGCCT (site TATTACCCTAG)” and “GAACCTACTTGGGTTCTAACCTGTTGCCG (site GAACCTACTCG)” are within 0.2 log units of each other in “recombinant barcode read abundance (log10)” value: 0.739 for the first, 0.583 for the second.

“CGCTCGACTTGGGTTCTAACCTGTTGCCT (site CGCTAGACTAG)” and “GTAATGACTTGGGTTCTAACCTGTTGCCT (site GAAATGACTAG)” are within 0.2 log units of each other in “recombinant barcode read abundance (log10)” value: 0.596 for the first, 0.403 for the second.

Going from “TACTACCCTTGGGTTCTAACCTGTTGCCT (site TACTACCCTAG)” to “GAGTGGACTTGGGTTCTAACCTGTTGCGT (site GAGTGGACTAC)”, the “recombinant barcode read abundance (log10)” value rises from 1.46 to 2.7.

First: ACGAAGGCTTGGGTTCTAACCTGTTGCCG (site ACGAAGGCTCG)
Second: GAGGGTCCTTGGGTTCTAACCTGTTGCTT (site GAGGGTCCTAT)
The “recombinant barcode read abundance (log10)” value of the first is lower: 0.691 for the first, 1.83 for the second.

“AAGTCCTCTTGGGTTCTAACCTGTTGCTT (site AAGACCTCTAA)” and “AGGTCCTCTTGGGTTCTAACCTGTTGCAT (site AGGTCCTCTAC)” are within 0.2 log units of each other in “recombinant barcode read abundance (log10)” value: 0.0682 for the first, 0.0867 for the second.

“TATTGGCCTTGGGTTCTAACCTGTTGCGT (site TATTGGCCTAC)” and “GCACGACCTTGGGTTCTAACCTGTTGCCT (site GCACCACCTAG)” are within 0.2 log units of each other in “recombinant barcode read abundance (log10)” value: 0.202 for the first, 0.0505 for the second.

Going from “GCCTCTTCTTGGGTTCTAACCTGTTGCCT (site GCCTCTTCTAG)” to “TCTATGTCTTGGGTTCTAACCTGTTGCCT (site TCTATGACTAG)”, the “recombinant barcode read abundance (log10)” value falls from 0.426 to 0.182.

First: TTGAACCCTTGGGTTCTAACCTGTTGCGT (site TTGAACCCTAC)
Second: TCTAGAACTTGGGTTCTAACCTGTTGCCT (site TCTAGATCTAG)
The “recombinant barcode read abundance (log10)” value of the first is higher: 1.63 for the first, 0.0276 for the second.

“ATGTGAACTTGGGTTCTAACCTGTTGCTG (site GCAGCCTCTAC)” and “TATTACCCTTGGGTTCTAACCTGTTGCCT (site TATTAACCTAG)” are within 0.2 log units of each other in “recombinant barcode read abundance (log10)” value: 0.0648 for the first, 0.035 for the second.

“TAGGCTCCTTGGGTTCTAACCTGTTGCAG (site TAGGCTCCTGT)” and “TAGGCGCCTTGGGTTCTAACCTGTTGCCT (site TAGGCGCCTAC)” are within 0.2 log units of each other in “recombinant barcode read abundance (log10)” value: 0.0237 for the first, 0.0375 for the second.

Going from “TCGAGTCCTTGGGTTCTAACCTGTTGCCT (site TCGAGTGCTAG)” to “CAAGTTCCTTGGGTTCTAACCTGTTGCCT (site CAAGTGCCTAG)”, the “recombinant barcode read abundance (log10)” value rises from 0.179 to 0.62.

“GTAAGTCCTTGGGTTCTAACCTGTTGCGA (site GTGAGTCCTCC)” and “TTCGACGCTTGGGTTCTAACCTGTTGCCT (site TTAGACTCTAG)” are within 0.2 log units of each other in “recombinant barcode read abundance (log10)” value: 0.0113 for the first, 0.152 for the second.

“AAGTGAGCTTGGGTTCTAACCTGTTGCCA (site CTCCTCTCTAT)” and “TTCTCGCCTTGGGTTCTAACCTGTTGCCT (site TTCACGCCTAG)” are within 0.2 log units of each other in “recombinant barcode read abundance (log10)” value: 0.0964 for the first, 0.0182 for the second.

First: AATAAGTCTTGGGTTCTAACCTGTTGCAT (site AATAAGTCTAT)
Second: AGGTCCTCTTGGGTTCTAACCTGTTGCAT (site AGGTCCTCTAG)
The “recombinant barcode read abundance (log10)” value of the first is lower: 0.385 for the first, 0.707 for the second.

Going from “AATGCTCCTTGGGTTCTAACCTGTTGCCT (site AATGCTCCTAT)” to “GTATCCTCTTGGGTTCTAACCTGTTGCAT (site GTATCCTCTAT)”, the “recombinant barcode read abundance (log10)” value rises from 0.0129 to 2.28.

“TTCAAATCTTGGGTTCTAACCTGTTGCCT (site TTCAAATCTAG)” and “ACCTCAACTTGGGTTCTAACCTGTTGCCT (site ACCTCAACTAG)” are within 0.2 log units of each other in “recombinant barcode read abundance (log10)” value: 0 for the first, 0.19 for the second.

Compared with “TGGTGTCCTTGGGTTCTAACCTGTTGCCT (site TGGCGTCCTAG)”, “CTAATATCTTGGGTTCTAACCTGTTGCTA (site CTAATAGCTTA)” is lower in “recombinant barcode read abundance (log10)” value: 0.279 for the first, 0.0341 for the second.
